pEC50: −log10 of the molar value.
What was measured:
[1] = test system: dissociated hypothalamic cells (medial preoptic area); experiment: Perforated patch recording of spontaneous miniature inhibitory postsynaptic currents (mIPSCs); assay type: cell-based, rat; conditions: 30 and 100 nM AP, holding potential −11 mV, n = 5, p < 0.05
Description: For the patch clamp studies, male Sprague-Dawley rats (n = 5, weight < 130 g) were housed at two or four rats per cage at 22 °C and with artificial daylight. Rats had free access to water and standard food. The regional ethics committee for animal research approved the experimental protocols. All procedures including animals were conducted in accordance with the ethical guidelines set by the European Union Directive 2010/63/EU for animal experiments.
Electrophysiological experiments: The methods used for electrophysiological recording and cell preparation have been described in detail elsewhere. A summary of the procedures is given below. […]
Protocol and analysis: A standard protocol was used for the experiments. Firstly, the current was recorded in the control solution (EC solution) for 30–60 s, followed by a 60–300 s test period with or without AP. The spontaneous miniature inhibitory postsynaptic currents (mIPSCs) were detected by visual inspection of current changes. […] The time-course and amplitude of the currents were measured semi-manually by using cursors and were fitted to an exponential decay curve by the curve-fitting routine of the pCLAMP software (Axon Instruments, Foster City, CA, USA). […] All the mIPSC values from the treatment period of the recorded cell (n = 6–11 events) were pooled and the mean was subjected to statistical analysis. […]

[2] = i.v. AP; cited from earlier work
[3] = target: T1, human α5β3γ2L GABAA receptors expressed in HEK-293 cells (Homo sapiens, UniProt P28472+P31644); experiment: Whole-cell patch clamp of GABA/THDOC-evoked currents, extra-synaptic protocol (Dynaflow); assay type: cell-based
T1 construct: The coding regions of the human GABAA receptor subunits were then amplified by PCR; expressed in transfected cells; host or cells: HEK-293 (permanently transfected, pcDNA3.1 vectors, CMV promoter)
From the text: Wild-type HEK-293 cells (passage 4, originating from Pasteur Institute, Paris, France) were permanently transfected with vectors including the human CMV promoter for the constitutive expression of the human α5, β3, and γ2L GABAA receptor subunits (α5β3γ2L) or the human α1, β2, and γ2L GABAA receptor subunits (α1β2γ2L). The production of the plasmids used in the sub-cloning of the different subunits is published in Rahman et al..
The electrophysiological recordings from HEK-293 cells were performed with the whole-cell voltage clamp technique, at room temperature (21–23 °C). After compensation for liquid junction potential, a steady holding potential of −17 mV was used in all experiments. Patch pipettes were pulled from borosilicate glass (Bergman Labora AB, Danderyd, Sweden) and polished to a resistance of 2–5 MΩ when filled with intracellular solution and immersed in a bath (extracellular) solution (for solutions, see below). The pipette tips were filled by immersion in standard intracellular solution and subsequent back-filling with intracellular solution. The recordings were made using an Axopatch 200B amplifier and a Digidata 1322A (Axon Instruments, Foster City, CA, USA) controlled via a Pentium processor-based personal computer. Data were acquired using the pCLAMP software sampled at 10 kHz, filtered at 2–10 kHz, and analyzed with Clampfit (versions 9.0, both from Axon Instruments, Foster City, CA, USA). A series resistance between the pipette and cell membrane not higher than 20 MΩ was accepted. No series resistance compensation was used. The stability of series resistance was monitored repeatedly from the time course of capacitative transients during the experiments. The measured liquid junction potential between extracellular and intracellular solutions was subtracted from all data presented, as previously described. All experiments were performed at room temperature (21–23 °C).
In all electrophysiological experiments, tetrahydro-deoxycorticosterone (THDOC) was used as a positive GABAA receptor steroid modulator (PAM) to mimic the effect of AP on central GABAA channels. […] THDOC (Sigma Chemical Co., St. Louis, MO, USA) and GR3027 (3α-ethynyl, 3β-hydroxyl, 5α-androstan-17-oxime, golexanolone, Umecrine Cognition AB, Stockholm, Sweden) were dissolved in dimethyl sulfoxide (DMSO) using ultrasound, for the preparation of solutions containing a final DMSO concentration of 0.1%. GR3027 was discovered within a series of molecules developed and patented by T. Bäckström and G. Ragagnin, (patent WO 2008/063128). All solutions were complemented with DMSO to achieve the same final concentration as in the steroid-containing test solution. GABA (Sigma Chemical Co., St. Louis, MO, USA) was first prepared as a stock solution (dissolved in EC with ultrasonic treatment) to the desired concentrations, with the corresponding final concentrations of test solutions (30 µM and 0.3 µM; see protocols below). GABA was added to the experimental solution without a change in osmolarity.
The experimental protocols were designed to mimic the physiological conditions of the tonic (extra-synaptic) and phasic (synaptic) activation of GABAA receptors observed in central neurons, depending on the subunit compositions, respectively. GABA-evoked currents in HEK-293 cells expressing extra-synaptic (α5β3γ2L) or synaptic (α1β2γ2L) types of GABAA receptors were studied using the conventional whole-cell patch clamp technique. To mimic the physiological GABA exposure, the HEK-293 cells expressing α1β2γ2L GABAA receptors were exposed to short applications (40 ms) of 30 µM GABA, whereas HEK-293 cells expressing α5β3γ2L GABAA receptors were exposed to prolonged applications (6 s) of 0.3 µM GABA, either in the absence or presence of THDOC and/or GR3027.

T1 sequence (P31644 32-462): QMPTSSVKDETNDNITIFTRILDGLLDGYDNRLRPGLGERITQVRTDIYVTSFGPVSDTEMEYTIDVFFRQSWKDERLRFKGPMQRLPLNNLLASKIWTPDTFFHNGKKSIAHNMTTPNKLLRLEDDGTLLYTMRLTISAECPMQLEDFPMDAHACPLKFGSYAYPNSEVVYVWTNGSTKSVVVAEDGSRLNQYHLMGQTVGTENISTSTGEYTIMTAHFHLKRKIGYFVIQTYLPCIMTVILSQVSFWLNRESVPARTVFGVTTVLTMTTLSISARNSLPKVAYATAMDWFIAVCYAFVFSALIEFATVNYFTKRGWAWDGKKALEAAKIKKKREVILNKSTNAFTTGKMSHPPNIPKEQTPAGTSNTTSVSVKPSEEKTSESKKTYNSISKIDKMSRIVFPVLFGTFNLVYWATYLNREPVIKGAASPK
T1 sequence (P28472 26-473 isoform P28472-2 limits assumed): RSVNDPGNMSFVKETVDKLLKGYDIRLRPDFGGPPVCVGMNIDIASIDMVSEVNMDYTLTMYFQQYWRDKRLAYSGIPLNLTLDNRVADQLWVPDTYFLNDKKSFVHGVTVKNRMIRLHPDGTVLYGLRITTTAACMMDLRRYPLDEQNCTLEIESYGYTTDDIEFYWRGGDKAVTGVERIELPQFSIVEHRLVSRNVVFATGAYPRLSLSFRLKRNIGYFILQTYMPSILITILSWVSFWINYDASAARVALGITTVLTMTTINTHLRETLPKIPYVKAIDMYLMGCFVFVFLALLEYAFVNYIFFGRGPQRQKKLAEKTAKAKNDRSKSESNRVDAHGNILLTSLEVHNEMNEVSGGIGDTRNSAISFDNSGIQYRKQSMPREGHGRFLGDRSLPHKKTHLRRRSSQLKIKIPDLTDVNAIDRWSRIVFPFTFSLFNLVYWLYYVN
T1 sequence (P18507 40-475 partner): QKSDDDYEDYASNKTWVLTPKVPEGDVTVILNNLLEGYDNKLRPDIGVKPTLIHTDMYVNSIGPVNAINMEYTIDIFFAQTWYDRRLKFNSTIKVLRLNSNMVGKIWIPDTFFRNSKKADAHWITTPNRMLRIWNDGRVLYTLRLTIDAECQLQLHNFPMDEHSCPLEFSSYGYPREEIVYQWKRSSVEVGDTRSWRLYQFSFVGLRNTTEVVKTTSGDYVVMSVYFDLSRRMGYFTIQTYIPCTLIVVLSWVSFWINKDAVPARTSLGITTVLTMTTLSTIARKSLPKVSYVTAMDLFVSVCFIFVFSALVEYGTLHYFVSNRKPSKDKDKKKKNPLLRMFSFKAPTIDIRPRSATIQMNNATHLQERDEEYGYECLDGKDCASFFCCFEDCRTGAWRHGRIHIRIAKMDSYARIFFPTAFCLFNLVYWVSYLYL

Compound	AUC of spontaneous miniature inhibitory postsynaptic currents vs vehicle [1]	Concentration in brain tissue after i.v. injections giving acute memory and learning disturbances [2] [nM]	pEC50 ([3]; EC50 of THDOC effect (outward shift in baseline holding current, direct activation), THDOC 30-300 nM, 0.3 µM GABA 6 s protocol, holding potential −17 mV)	THDOC Emax, % change in peak amplitude at 0.3 µM GABA ([3]; THDOC 0.01-1 µM + 0.3 µM GABA + 1 µM GR3027) [%]	THDOC Emax, % change in peak amplitude at 0.3 µM GABA ([3]; THDOC 0.01-1 µM + 0.3 µM GABA + 3 µM GR3027) [%]	THDOC Emax, % change in peak amplitude at 0.3 µM GABA ([3]; THDOC 0.01-1 µM + 0.3 µM GABA, no GR3027) [%]	Emax of THDOC effect (outward shift in baseline holding current, direct activation) ([3]; THDOC 30-300 nM, 0.3 µM GABA 6 s protocol) [%]	pEC50 ([3]; THDOC EC50, enhancement of GABA-evoked peak amplitude, THDOC 0.01-1 µM + 0.3 µM GABA + 1 µM GR3027)	pEC50 ([3]; THDOC EC50, enhancement of GABA-evoked peak amplitude, THDOC 0.01-1 µM + 0.3 µM GABA + 3 µM GR3027)	pEC50 ([3]; THDOC EC50, enhancement of GABA-evoked peak amplitude, THDOC 0.01-1 µM + 0.3 µM GABA, no GR3027)
CC(=O)[C@H]1CC[C@H]2[C@@H]3CC[C@H]4C[C@H](O)CC[C@]4(C)[C@H]3CC[C@]12C [AP, 3α-OH-5α-pregnan-20-one]	significantly higher	1000 to 2000								
C[C@]12CC[C@@H](O)C[C@@H]1CC[C@@H]1[C@@H]2CC[C@]2(C)[C@@H](C(=O)CO)CC[C@@H]12 [THDOC, 3α,21-dihydroxy-5α-pregnan-20-one, reference compound]			7.49	489	482	687	145	6.66	6.46	6.72

Source: PMC10604444, “Extra-Synaptic GABAA Receptor Potentiation and Neurosteroid-Induced Learning Deficits Are Inhibited by GR3027, a GABAA Modulating Steroid Antagonist” (Biomolecules, 2023)
